Assay results from patent US11498943B2, “Amyloid inhibitory peptides” (TECHNISCHE UNIVERSITÄT MÜNCHEN, priority 2018, dated 2022).
Where a SMILES comes first, the peptide text is derived from it. [ ]: non-standard residue; d: D form. NMeI = CC[C@H](C)[C@H](NC)C(=O)O; Sar = CNCC(=O)O

Columns and labels:
IAPP [1] = target: T1, IAPP (Homo sapiens, UniProt P10997); test: IAPP fibrillogenesis by ThT binding, confirmed by TEM, with cell damage by MTT reduction; format: biochemical; parameters: IAPP was synthesized by SPPS and the Fmoc-strategy on RINK resin, subjected to air oxidation and purified by RP-HPLC; made in house; host or cells: chemical synthesis (Fmoc SPPS on RINK resin, air oxidation); settings: IAPP 6 μM, MTT in RIN5fm cells
T1 sequence (P10997 34-70 limits assumed): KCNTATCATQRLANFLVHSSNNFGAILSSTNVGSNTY
Procedure: (§1) Thioflavin T (ThT) Binding Assays
(§2) At indicated time points, aliquots were gently mixed with a ThT solution (20 μM ThT in 0.05 M glycine/NaOH, pH 8.5); ThT binding was determined immediately by measuring fluorescence emission at 486 nm upon excitation at 450 nm using a 2030 Multilabel Reader VictorX3 (PerkinElmer Life Sciences). Effects of peptides added at specific pre- and post-nucleation time points of Aβ40 amyloidogenesis were studied by adding aliquots of Aβ40 solutions (16.5 μM; incubation conditions as above) aged for the indicated time points to the peptide (in dry form) as previously described and ThT binding was determined as above.
(§3) 10 μl aliquots of solutions of the ThT binding and MTT assays were applied on carbon-coated grids at indicated time points, washed with distilled water and stained with aqueous 2% (w/v) uranyl acetate as described. Grids were examined using a JEOL JEM 100CX (at 100 kV) or a JEOL 1400 Nus electron microscope (at 120 kV).
(§4) Both cell lines were cultured and plated in 96-well plates as described. […] Following incubation with the cells for ˜20 h (37° C., humidified atmosphere with 5% CO2), the MTT reduction assay was used to assess cell damage/metabolic activity as previously described.

IAPP [2] = target: T1, IAPP; parameters: IAPP was synthesized by SPPS and the Fmoc-strategy on RINK resin, subjected to air oxidation and purified by RP-HPLC; made in house; host or cells: chemical synthesis (Fmoc SPPS on RINK resin, air oxidation); settings: as previously found; cited from earlier work
Aβ40 [3] = target: T2, Aβ40 (Homo sapiens, UniProt P05067); settings: as previously found; cited from earlier work
T2 construct: Aβ40 (TFA salt) was synthesized by Fmoc-based solid phase synthesis (SPPS); made in house; host or cells: chemical synthesis (Fmoc SPPS on Tentagel R PHB resin)

Aβ40 [4] = target: T2, Aβ40; test: Aβ40 fibrillogenesis by ThT binding, confirmed by TEM, with cell damage by MTT reduction; format: biochemical; settings: Aβ40 16.5 μM, MTT in PC12 cells
Procedure: as §1, §2, §3, §4

[5] = Peptide stability in human plasma (in vitro); format: in vitro ADME; settings: human blood plasma, 200 μM peptide, 37° C., read-out: t1/2 in human plasma
Procedure: Peptide Stability in Human Plasma (In Vitro)
Peptides were dissolved in human blood plasma (obtained from voluntary healthy donors) at a concentration of 200 μM and incubated at 37° C. for various time intervals. Following quenching (1/1) with aqueous trichloroacetic acid (10%), solutions were incubated on ice for 10 min, subjected to centrifugation to precipitate plasma proteins (20200 g; 4 min), and the supernatants were mixed (1/2) with a solution consisting of 80% HPLC buffer B and 20% HPLC buffer A (see below). To quantify intact peptide at different time points, solutions containing the supernatants were analyzed by RP-HPLC (detection at 214 nm) by using a Nucleosil 100 C18 column (Grace) (length 33 mm length, ID 8 mm, 7 μm particle size) with a flow rate of 2.0 ml/min and eluting buffers A, 0.058% (v/v) TFA in water, and B, 0.05% (v/v) TFA in 90% (v/v) CH3CN in water. The elution gradient was 10-90% B in A over 8 min; this step was followed by a 90-10% B in A over 3 min step to establish starting conditions. HPLC fractions were collected, lyophilized, and analyzed by MALDI-TOF-MS using a Bruker Daltonik MALDI-TOF MS instrument.

Aβ40 [6] = target: T2, Aβ40; settings: Aβ40 500 nM; value marked with literature reference [5]; read-out: IC50 (±SD) (nM) Aβ40 inhibition; cited from earlier work

T2 sequence (P05067 672-711): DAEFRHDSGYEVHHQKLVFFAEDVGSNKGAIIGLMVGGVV

Compound: CC[C@H](C)[C@@H](C(=O)N[C@@H](CC(C)C)C(=O)N[C@@H](CO)C(N)=O)N(C)C(=O)[C@H](C)NC(=O)CN(C)C(=O)[C@H](Cc1ccccc1)NC(=O)[C@H](CC(N)=O)NC(=O)[C@H](CCCNC(=N)N)NC(=O)[C@H](CCCNC(=N)N)NC(=O)[C@H](CCCNC(=N)N)NC(=O)[C@H](Cc1c[nH]cn1)NC(=O)[C@@H](NC(=O)[C@H](CC(C)C)NC(=O)[C@H](Cc1ccccc1)NC(=O)[C@H](CC(N)=O)NC(=O)[C@H](C)NC(=O)[C@H](CC(C)C)NC(=O)[C@H](CCCNC(=N)N)NC(=O)[C@H](CCC(N)=O)NC(=O)[C@@H](NC(=O)[C@H](C)N)[C@@H](C)O)C(C)C [R3-GI (1)] (H-ATQRLANFLVHRRRNF[Sar]A[NMeI]LS-NH2; N-terminus assumed)
- Effect on amyloid self-assembly and cell damage by IAPP (IAPP [1]): not IAPP amyloidogenesis
- app. Kd of interaction with fluorescently labeled IAPP (IAPP [2]): mid-nanomolar
- app. Kd of interaction with fluorescently labeled Aβ40 (Aβ40 [3]): mid-nanomolar
- Effect on amyloid self-assembly and cell-damaging effects of Aβ40 (Aβ40 [4]): able to inhibit
- half-life at 200 μM [5]: ~20 min
- IC50 (Aβ40 [6]): 116 nM
